{"source": "patent US20200199530A1", "about": "“METHODS OF DIFFERENTIATING STEM CELL-DERIVED ECTODERMAL LINEAGE PRECURSORS” (MEMORIAL SLOAN-KETTERING CANCER CENTER, priority 2017, published 2020)", "key": {"[1]": {"system": "SIX1 placode cells (PAX3 expression)", "assay": "Trigeminal placode induction by CHIR99021 pulse", "assay_type": "cell-based, human", "conditions": "additional pulse after the placode-inducing BMP pulse", "method": "(§1) All differentiations starting from E8 were dissociated into single cells using EDTA and re-plated at high density in E8 with the ROCK inhibitor (Tocris). Cells were typically seeded at a density of 200,000 cells/cm^2 on Matrigel coated dishes. Switching from E8 to E6 triggered differentiations (i.e. d0). Neuroectoderm (NE) formation was generated by culturing the cells in E6 with 10 μM SB and 500 nM LDN until d12. Neural Crest (NC) was first treated with 10 μM SB, 600 nM CHIR and 1 ng/ml BMP4 from d0-d2. At d3, cells were maintained in 10 μM SB with 1.5 uM CHIR until d12. Lens placode was first treated with 10 μM SB and 5 ng/ml BMP4 from d0-d2. At d3, cells were maintained in 10 μM SB with 50 ng/ml FGF2 until d12. Trigeminal placode was first treated with 10 μM SB and 5 ng/ml BMP4 from d0-d2. At d2, 600 nm CHIR was added. At d3, cells were treated with 10 μM SB and 600 nM CHIR. From d4-d12, cells were treated with 10 μM SB. Finally, non-neural ectoderm (NNE) was treated with 10 μM SB, 10 μM SU5402 and 10 ng/ml BMP4 from d0-d1, and then treated with 10 μM SB and 5 ng/ml BMP4 from d2-d12.\nTrigeminal Placode differentiation. Day 0 (0-24 hrs): Add E6 media containing 5 ng/ml BMP4+10 μM SB to cells.\nDay 1 (24-48 hrs): Change media with E6 media containing 5 ng/ml BMP4+10 μM SB to cells.\nDay 2 (48-72 hrs): Change media with E6 media containing 5 ng/ml BMP4+10 μM SB+600 nM CHIR to cells. […]"}, "[2]": {"system": "hPSCs", "assay": "Tolerability of small molecules during E6-based differentiation", "assay_type": "cell-based, human", "conditions": "had to be re-titrated"}, "[3]": {"system": "rodent GSK3β homologs", "conditions": "cited from earlier work"}, "[4]": {"system": "human pluripotent stem cells (PAX6::H2B-GFP reporter)", "assay": "Neuroectoderm induction in E6 media, PAX6 positive cells", "assay_type": "cell-based", "conditions": "day 12 post induction, no small molecules ~40%", "method": "as §1\nNeuroectoderm differentiation. Day 0 (0-24 hrs): Add E6 media containing 500 nM LDN+10 μM SB to cells. To skew the differentiation more toward an anterior neuroectoderm, add E6 media containing 500 nM LDN+10 μM SB+5 μM XAV to cells. […]"}, "[5]": {"system": "hPSC differentiated towards pituitary placode", "assay": "Pituitary placode induction from hPSC", "assay_type": "cell-based, human", "conditions": "1 μM, with FGF8 and FGF10, day 15", "method": "For pituitary differentiation cells were plated at 250 000 cells/cm^2 on VTN-N coated dishes (differentiation works best in 24 well plates) in E8+10 μM Y-27632. After 24 h (day0) medium was changed to E6 supplemented with 10 μM SB431542 and 5 ng/ml BMP4 (R&D Systems). Medium was changed every day. On day 3 BMP4 was removed from the medium and cells were cultured for 1 day in E6+10 μM SB431542. For the standard differentiation conditions, on day 4 E6 was supplemented with 10 μM SB431542, 200 ng/ml SHH (R&D Systems, C25II), 100 ng/ml FGF8b (R&D Systems) and 50 ng/ml FGF10 (Peprotech Inc.). For some experiments SHH was replaced by 1 μM purmorphamine (Stemgent) or 1 μM SAG (Stemcell Technologies). From now on medium volume was doubled and cells were feed every other day until day 15. […] Purified cells were then plated as droplets (50 000 cells/10 μl drop) in E6 supplemented with 10 μM Y-27632, 200 ng/ml SHH, 100 ng/ml FGF8b and 50 ng/ml FGF10 on polyornithine/laminin/fibronectin-coated plates. After 24 h medium was changed to E6 containing SHH, FGF8 and FGF10 until day 30. Medium was changed every other day. […] For quantitative RT PCR the present example used the SSoFast EvaGreen Mix (BioRad) in combination with QuantiTect primer assays (Qiagen) on a BioRad CFX96 Thermal Cycler. […] Results are calculated using the ΔΔCt method (Livak and Schmittgen, 2001)."}}, "data": [{"smiles": "Cc1c[nH]c(-c2cnc(NCCNc3ccc(C#N)cn3)nc2-c2ccc(Cl)cc2Cl)n1", "note": "[CHIR99021, 6-(2-(4-(2,4-dichlorophenyl)-5-(4-methyl-1H-imidazol-2-yl)pyrimidin-2-ylamino)ethylamino)nicotinonitrile]", "values": [{"measurement": "PAX3 expression in placode cells", "setting": "[1]", "value": "capable of triggering PAX3+ and PAX6− expression"}, {"measurement": "cell killing at the original (KSR protocol) concentration", "setting": "[2]", "value": "effectively killed the cells"}, {"measurement": "IC50 values against rodent GSK3β homologs", "setting": "[3]", "value": "nanomolar"}]}, {"smiles": "NC(=O)c1ccc(-c2nc(-c3ccc4c(c3)OCO4)c(-c3ccccn3)[nH]2)cc1", "note": "[SB431542, 4-[4-(1,3-benzodioxol-5-yl)-5-(2-pyridinyl)-1H-imidazol-2-yl]-benzamide]", "values": [{"measurement": "percentage of cells expressing PAX6", "setting": "[4]", "value": "~90", "unit": "%"}]}, {"smiles": "c1ccc2c(Oc3nc(Nc4ccc(N5CCOCC5)cc4)c4ncn(C5CCCCC5)c4n3)cccc2c1", "note": "[purmorphamine]", "values": [{"measurement": "replacement of recombinant SHH in pituitary induction", "setting": "[5]", "value": "can be replaced"}]}, {"smiles": "CNC1CCC(N(Cc2cccc(-c3ccncc3)c2)C(=O)c2sc3ccccc3c2Cl)CC1", "note": "(stereo not drawn) [SAG]", "values": [{"measurement": "replacement of recombinant SHH in pituitary induction", "setting": "[5]", "value": "can be replaced"}]}]}
